The source of these data is patent USRE49850E1, “N-(pyridin-2-yl)-4-(thiazol-5-yl)pyrimidin-2-amine derivatives as therapeutic compounds” (AUCENTRA THERAPEUTICS PTY LTD, priority 2015, dated 2024).

The target of one assay is CDK1B (Homo sapiens, UniProt P06493). Put plainly: Kinase assay CDK1B (radiometric profiling service). The conditions noted are these: for Ki: apparent Ki calculated from Km (ATP) and IC50, read-out: CDK inhibition Ki CDK1B; for remaining activity at 10 µM: compound at 10 μM, read-out: % remaining enzymatic activity at 10 μM CDK1B. The assay is classed as biochemical. As to the method:
(§1) Eurofins Pharma Discovery or Reaction Biology Corporation Kinase Profiler services were used to measure inhibition of CDKs and other kinases by radiometric assay. Inhibition of CDK4/D1, CDK6/D3 and CDK9/T1 were also determined in-house using ADP Glo Kinase assays (Promega Corporation, Madison, USA). Briefly, the kinase reaction for CDK4/D1 and CDK6/D3 was performed with kinase reaction buffer ([…] Tris base pH 7.5, 20 mM MgCl2, 0.4 mM DTT), 0.1 mg/ml BSA and RB-CTF substrate (retinoblastoma protein1 C-terminal fraction). For CDK9/CyclinT1, the kinase reaction was performed with standard assay buffer and Kinase Dilution Buffer and RBER-IRStide substrate. Serial dilutions of 1:3 were prepared for test compounds for 10 concentrations (from 10 μM to 0.5 nM). The kinase reactions were started by addition of ATP, incubated for 40 min at 37° C. and then stopped by adding 10 μL of ADP Glo reagent. After incubation at room temperature in the dark for 40 min, 20 μL of kinase detection reagent was added per well and incubated for 40 min. Luminescence was measured using an EnVision Multilabel plate reader (PerkinElmer, Buckinghamshire, UK). Positive and negative controls were perfonned in the presence and absence of CDK kinases, respectively. Half-maximal inhibition (IC50) values were calculated using a 4-parameter logistic non-linear regression model with Graphpad prism (Version 6.0). Apparent inhibition constants (Ki) values were calculated from Km (ATP) and IC50 values for the respective kinases.

A further assay deals with CDK 2A (Homo sapiens, UniProt P24941). Description: Kinase assay CDK2A (radiometric profiling service). The following applies: for Ki: apparent Ki calculated from Km (ATP) and IC50, read-out: CDK inhibition Ki CDK 2A; for remaining activity at 10 µM: compound at 10 μM, read-out: % remaining enzymatic activity at 10 μM CDK 2A. The assay is classed as biochemical. As to the method:
as §1

A further assay has as its target T1, CDK4D1 (Homo sapiens, UniProt P11802).
T1 construct: purchased Eurofins Pharma Discovery or Reaction Biology Corporation (service)
Description: Kinase assay CDK4/D1 (radiometric or ADP Glo). The assay is classed as biochemical. The following applies: apparent Ki calculated from Km (ATP) and IC50; read-out: CDK inhibition Ki CDK4D1. The protocol: as §1

The target of a further assay is CDK7H (Homo sapiens, UniProt P50613). Put plainly: Kinase assay CDK7H (radiometric profiling service). Type of assay: biochemical. The conditions noted are these: for Ki: apparent Ki calculated from Km (ATP) and IC50, read-out: CDK inhibition Ki CDK7H; for remaining activity at 10 µM: compound at 10 μM, read-out: % remaining enzymatic activity at 10 μM CDK7H. The protocol:
as §1

A further assay deals with T2, CDK9T1 (Homo sapiens, UniProt P50750).
T2 construct: purchased Eurofins Pharma Discovery or Reaction Biology Corporation (service)
Description: Kinase assay CDK9/T1 (radiometric or ADP Glo). Type of assay: biochemical. The conditions noted are these: for Ki: apparent Ki calculated from Km (ATP) and IC50, read-out: CDK inhibition Ki CDK9T1; for remaining activity at 10 µM: compound at 10 μM, read-out: % remaining enzymatic activity at 10 μM CDK9T1. As to the method: as §1

The next assay has as its system MV4-11. Description: Cell viability assay (resazurin, leukemia cell line) MV4-11. The following applies: Homo sapiens, MV4-11, 72 h; read-out: Anti-proliferative activity GI50 MV4-11. The assay is classed as cell-based, human. From the text:
(§2) Compounds from Example 1 were subjected to a standard MTT (3-(4,5-dimethylthiazol-2-yl)-2,5-diphenyltetrazolium bromide) and resazurin assays on solid tumour cell lines and leukemia cell lines, respectively, as previously reported (Wang S et al., J Med Chem 47:1662-1675, 2004 and Diab S. et al. CheMedChem 9:962-972, 2014).
A general note: Alamar Blue is a resazurin reagent that responds to reducing activity.

The test system of another assay is MDA-MB-453. Put plainly: Cell viability assay (MTT, solid tumour cell line) MDA-MB-453. The assay is classed as cell-based, human. The conditions noted are these: Homo sapiens, MDA-MB-453, 72 h; read-out: Anti-proliferative activity GI50 MDA-MB-453.
Source text: as §2

Another assay concerns the target T3, CDK6D3 (Homo sapiens, UniProt Q00534).
T3 construct: purchased Eurofins Pharma Discovery or Reaction Biology Corporation (service)
Put plainly: Kinase assay CDK6/D3 (radiometric or ADP Glo). The assay is classed as biochemical. The conditions noted are these: for Ki: apparent Ki calculated from Km (ATP) and IC50, read-out: CDK inhibition Ki CDK6D3; for remaining activity at 10 µM: compound at 10 μM, read-out: % remaining enzymatic activity at 10 μM CDK6D3. The protocol:
as §1

Chain of CDK7H (P50613 whole entry): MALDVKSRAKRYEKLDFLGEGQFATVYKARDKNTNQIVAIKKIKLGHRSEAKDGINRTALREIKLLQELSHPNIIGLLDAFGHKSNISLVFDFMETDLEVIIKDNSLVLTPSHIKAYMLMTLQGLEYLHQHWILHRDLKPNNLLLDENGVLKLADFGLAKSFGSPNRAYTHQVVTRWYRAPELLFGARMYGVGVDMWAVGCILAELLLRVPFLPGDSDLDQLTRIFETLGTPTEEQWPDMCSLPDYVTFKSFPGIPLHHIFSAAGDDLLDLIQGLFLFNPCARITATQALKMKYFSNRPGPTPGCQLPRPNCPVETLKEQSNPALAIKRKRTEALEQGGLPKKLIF
Chain of CDK7H (P51946 whole entry partner): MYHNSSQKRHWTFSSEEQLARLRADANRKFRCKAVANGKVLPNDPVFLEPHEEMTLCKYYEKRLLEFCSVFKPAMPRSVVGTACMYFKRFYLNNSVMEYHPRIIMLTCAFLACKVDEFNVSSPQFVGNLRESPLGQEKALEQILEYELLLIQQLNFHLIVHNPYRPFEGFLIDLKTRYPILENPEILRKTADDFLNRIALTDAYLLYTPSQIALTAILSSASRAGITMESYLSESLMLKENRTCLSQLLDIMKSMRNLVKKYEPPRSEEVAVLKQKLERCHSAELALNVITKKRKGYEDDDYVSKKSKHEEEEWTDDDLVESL
Chain of CDK7H (P51948 whole entry partner): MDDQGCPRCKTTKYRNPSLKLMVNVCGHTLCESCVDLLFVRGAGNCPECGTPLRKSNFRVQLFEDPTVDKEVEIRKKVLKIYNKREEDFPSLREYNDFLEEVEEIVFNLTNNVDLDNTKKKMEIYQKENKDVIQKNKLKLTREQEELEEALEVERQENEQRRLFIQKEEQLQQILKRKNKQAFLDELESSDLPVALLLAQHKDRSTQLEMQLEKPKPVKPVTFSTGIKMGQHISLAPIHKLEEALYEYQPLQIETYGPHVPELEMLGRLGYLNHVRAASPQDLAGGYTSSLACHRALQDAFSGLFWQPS
T2 sequence (P50750 whole entry): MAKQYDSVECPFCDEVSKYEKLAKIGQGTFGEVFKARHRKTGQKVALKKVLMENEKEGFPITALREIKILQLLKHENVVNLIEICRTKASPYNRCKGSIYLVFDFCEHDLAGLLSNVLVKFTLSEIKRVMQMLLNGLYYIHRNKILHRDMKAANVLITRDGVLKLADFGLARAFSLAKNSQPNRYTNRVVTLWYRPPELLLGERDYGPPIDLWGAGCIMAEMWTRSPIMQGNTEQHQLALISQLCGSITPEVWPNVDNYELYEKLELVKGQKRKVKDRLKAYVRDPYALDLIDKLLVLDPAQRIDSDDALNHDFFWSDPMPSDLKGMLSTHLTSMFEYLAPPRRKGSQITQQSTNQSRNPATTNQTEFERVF
T2 sequence (O60563 whole entry partner): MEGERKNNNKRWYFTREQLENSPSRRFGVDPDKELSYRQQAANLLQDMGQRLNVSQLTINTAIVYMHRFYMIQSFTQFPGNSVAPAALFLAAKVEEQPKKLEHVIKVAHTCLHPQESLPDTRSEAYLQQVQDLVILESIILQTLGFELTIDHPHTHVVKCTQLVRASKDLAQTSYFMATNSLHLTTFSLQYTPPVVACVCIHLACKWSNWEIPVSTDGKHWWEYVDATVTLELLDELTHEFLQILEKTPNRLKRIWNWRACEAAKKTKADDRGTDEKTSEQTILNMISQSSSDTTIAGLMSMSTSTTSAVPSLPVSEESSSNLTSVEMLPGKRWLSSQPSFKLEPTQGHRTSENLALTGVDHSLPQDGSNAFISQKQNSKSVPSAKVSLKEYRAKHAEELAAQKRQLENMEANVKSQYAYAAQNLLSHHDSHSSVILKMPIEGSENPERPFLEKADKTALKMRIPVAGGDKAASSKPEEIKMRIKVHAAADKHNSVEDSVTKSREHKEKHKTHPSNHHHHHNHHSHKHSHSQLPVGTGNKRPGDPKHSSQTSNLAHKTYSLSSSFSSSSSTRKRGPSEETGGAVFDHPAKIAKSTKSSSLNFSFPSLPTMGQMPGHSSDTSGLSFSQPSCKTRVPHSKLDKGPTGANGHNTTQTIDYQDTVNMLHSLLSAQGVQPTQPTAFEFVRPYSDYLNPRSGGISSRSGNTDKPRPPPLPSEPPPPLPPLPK
T3 sequence (Q00534 whole entry): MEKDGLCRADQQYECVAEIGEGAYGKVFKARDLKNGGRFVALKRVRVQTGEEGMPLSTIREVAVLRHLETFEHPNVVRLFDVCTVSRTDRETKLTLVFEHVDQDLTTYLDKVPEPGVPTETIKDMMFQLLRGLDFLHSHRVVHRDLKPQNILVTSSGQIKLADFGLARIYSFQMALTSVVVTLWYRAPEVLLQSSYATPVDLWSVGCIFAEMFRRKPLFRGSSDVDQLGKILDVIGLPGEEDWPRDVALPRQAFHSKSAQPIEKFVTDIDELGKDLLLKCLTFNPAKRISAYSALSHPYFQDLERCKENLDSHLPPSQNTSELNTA
T3 sequence (P30281 whole entry partner): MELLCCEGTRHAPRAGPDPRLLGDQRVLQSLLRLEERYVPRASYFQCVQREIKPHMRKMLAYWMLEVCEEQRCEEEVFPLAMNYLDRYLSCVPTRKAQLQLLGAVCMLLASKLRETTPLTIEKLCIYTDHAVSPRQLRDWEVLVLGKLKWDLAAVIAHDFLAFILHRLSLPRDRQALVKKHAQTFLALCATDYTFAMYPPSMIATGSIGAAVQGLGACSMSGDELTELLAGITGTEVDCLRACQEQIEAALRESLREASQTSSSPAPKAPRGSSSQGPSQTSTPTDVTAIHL
T1 sequence (P11802 whole entry): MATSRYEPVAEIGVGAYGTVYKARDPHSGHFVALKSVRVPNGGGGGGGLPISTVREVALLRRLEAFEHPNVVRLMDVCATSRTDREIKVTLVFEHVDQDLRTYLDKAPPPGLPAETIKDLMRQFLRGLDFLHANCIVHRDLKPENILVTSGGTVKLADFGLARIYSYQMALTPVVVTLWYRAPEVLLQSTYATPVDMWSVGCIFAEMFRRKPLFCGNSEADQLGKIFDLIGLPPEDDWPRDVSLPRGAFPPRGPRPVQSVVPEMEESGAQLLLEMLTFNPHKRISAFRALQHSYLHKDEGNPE
T1 sequence (P24385 whole entry partner): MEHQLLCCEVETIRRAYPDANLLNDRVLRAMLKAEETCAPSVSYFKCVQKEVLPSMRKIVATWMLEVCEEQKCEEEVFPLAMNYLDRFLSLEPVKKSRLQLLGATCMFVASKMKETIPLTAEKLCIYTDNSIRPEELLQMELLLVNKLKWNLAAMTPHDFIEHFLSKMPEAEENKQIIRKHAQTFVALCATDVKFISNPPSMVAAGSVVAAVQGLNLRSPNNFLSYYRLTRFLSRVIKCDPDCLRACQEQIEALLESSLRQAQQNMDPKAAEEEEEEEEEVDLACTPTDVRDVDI
Chain of CDK1B (P06493 whole entry): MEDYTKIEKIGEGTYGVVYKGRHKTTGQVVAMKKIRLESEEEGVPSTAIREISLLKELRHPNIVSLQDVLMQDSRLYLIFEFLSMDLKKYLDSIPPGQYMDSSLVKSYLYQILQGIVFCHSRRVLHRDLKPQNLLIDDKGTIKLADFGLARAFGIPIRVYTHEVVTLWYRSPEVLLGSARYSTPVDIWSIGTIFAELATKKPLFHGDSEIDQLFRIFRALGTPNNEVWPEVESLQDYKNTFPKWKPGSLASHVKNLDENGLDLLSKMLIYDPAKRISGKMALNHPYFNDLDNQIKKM
Chain of CDK1B (P14635 whole entry partner): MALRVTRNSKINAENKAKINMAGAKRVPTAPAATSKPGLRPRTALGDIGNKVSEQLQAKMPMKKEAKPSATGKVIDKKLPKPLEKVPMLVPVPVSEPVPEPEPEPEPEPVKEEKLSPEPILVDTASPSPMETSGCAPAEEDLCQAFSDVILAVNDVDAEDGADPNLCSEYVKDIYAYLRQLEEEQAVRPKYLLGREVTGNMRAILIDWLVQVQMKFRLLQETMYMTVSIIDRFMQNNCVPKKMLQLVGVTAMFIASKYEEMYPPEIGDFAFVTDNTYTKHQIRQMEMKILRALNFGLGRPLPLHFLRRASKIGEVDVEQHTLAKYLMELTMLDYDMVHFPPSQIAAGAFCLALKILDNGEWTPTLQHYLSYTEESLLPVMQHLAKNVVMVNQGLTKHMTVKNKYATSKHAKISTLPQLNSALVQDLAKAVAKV

As usually defined, the GI50 is the concentration at which growth is held to half of that of the control. Turning to `CCc1nc(C)c(-c2ccnc(Nc3ccc(N4CCN(C(C)=O)CC4)cn3)n2)s1` [Compound 10, 1-(4-(6-((4-(2-ethyl-4-methylthiazol-5-yl)pyrimidin-2-yl)amino)pyridin-3-yl)piperazin-1-yl)ethan-1-one], the Ki at CDK1B was more than 5 µM; at CDK 2A it was more than 5 µM; at CDK4D1, 0.29 µM; on CDK7H, more than 5 µM; at CDK9T1, more than 5 µM. The GI50 was 5.37 ± 1.69 µM in the assay on MV4-11 and more than 10 µM in the assay on MDA-MB-453.

On to `CCc1nc(C)c(-c2nc(Nc3ccc(N4CCN(C(C)=O)CC4)cn3)ncc2Cl)s1` [Compound 11, 1-(4-(6-((5-chloro-4-(2-ethyl-4-methylthiazol-5-yl)pyrimidin-2-yl)amino)pyridin-3-yl)piperazin-1-yl)ethan-1-one], for which the Ki was more than 5 µM at CDK1B; more than 5 µM on CDK 2A; 0.25 µM at CDK4D1; more than 5 µM on CDK7H; more than 5 µM at CDK9T1. For the same compound, the GI50 with MV4-11 and with MDA-MB-453 was more than 10 µM in each case.

As to `CCc1nc(C)c(-c2ccnc(Nc3ccc(N4CCOCC4)cn3)n2)s1` [Compound 12, 4-(2-Ethyl-4-methylthiazol-5-yl)-N-(5-morpholinopyridin-2-yl)pyrimidin-2-amine], the Ki is more than 5 µM at CDK1B; 2.34 µM on CDK 2A; 0.18 µM at CDK4D1; more than 5 µM at CDK7H; more than 5 µM on CDK9T1. Besides, the GI50 in the assay on MV4-11 is 5.29 ± 0.811 µM; in the assay on MDA-MB-453, more than 10 µM.

As for `Cc1nc(N(C)C)sc1-c1nc(Nc2ccc(N3CCOCC3)cn2)ncc1F` [Compound 50, 5-(5-fluoro-2-((5-morpholinopyridin-2-yl)amino)pyrimidin-4-yl)-N,N,4-trimethylthiazol-2-amine], the Ki on CDK1B is more than 5 µM; at CDK 2A it was 0.069 µM; on CDK4D1, 0.044 µM; at CDK7H, more than 5 µM; on CDK9T1, more than 5 µM. Further, the GI50 in the assay on MV4-11 was determined as 4.67 ± 0.298 µM; with MDA-MB-453, 5.36 ± 0.501 µM.

For the compound `CCN1CCN(c2ccc(Nc3nccc(-c4sc(NC5CCCC5)nc4C)n3)nc2)CC1` [Compound 66, N-cyclopentyl-5-(2-((5-(4-ethylpiperazin-1-yl)pyridin-2-yl)amino)pyrimidin-4-yl)-4-methylthiazol-2-amine], the Ki at CDK1B was 3.02 µM; on CDK7H it was 0.78 µM. Also, the figures for the GI50 with MV4-11 and in the assay on MDA-MB-453 were 0.009 ± 0.001 µM and 0.287 ± 0.07 µM, respectively.

Turning to `Cc1nc(NC2CCCC2)sc1-c1nc(Nc2ccc(N3CCOCC3)cn2)ncc1F` [Compound 72], the Ki at CDK7H and on CDK9T1 was more than 5 µM in each case. Further, the GI50 in the assay on MDA-MB-453 amounted to 1.44 ± 0.304 µM.

In the case of `Cc1nc(NC2CCCC2)sc1-c1ccnc(Nc2ccc(N3CCCNCC3)cn2)n1` [Compound 76, 5-(2-((5-(1,4-diazepan-1-yl)pyridin-2-yl)amino)pyrimidin-4-yl)-N-cyclopentyl-4-methylthiazol-2-amine], the Ki was 4.07 µM at CDK1B; 0.278 µM on CDK 2A; 0.001 µM at CDK4D1; 0.008 µM on CDK6D3; 0.508 µM at CDK9T1. Also, the 50% growth inhibitory concentration (GI50) in the assay on MV4-11 came out at 0.029 ± 0.002 µM; with MDA-MB-453, 0.102 ± 0.117 µM.

As for `O=CN1CCN(c2ccc(Nc3nccc(-c4sc(NC5CCCC5)nc4C(F)(F)F)n3)nc2)CC1` [Compound 79, 4-(6-((4-(2-(cyclopentylamino)-4-(trifluoromethyl)thiazol-5-yl)pyrimidin-2-yl)amino)pyridin-3-yl)piperazine-1-carbaldehyde], the Ki on CDK1B is 0.345 µM; on CDK 2A it was 0.015 µM; on CDK4D1, 0.011 µM; at CDK6D3 it was 0.007 µM; on CDK9T1, more than 5 µM. Moreover, the GI50 came out at 0.004 ± 0.001 µM in the assay with MV4-11 and 0.336 ± 0.188 µM in the assay on MDA-MB-453.

On to `Cc1nc(NC2CCCC2)sc1-c1nc(Nc2ccc(N3CCCNCC3)cn2)ncc1F` [Compound 81, 5-(2-((5-(1,4-diazepan-1-yl)pyridin-2-yl)amino)-5-fluoropyrimidin-4-yl)-N-cyclopentyl-4-methylthiazol-2-amine], for which the Ki at CDK1B was more than 5 µM; on CDK 2A it was 0.417 µM; at CDK4D1, 0.014 µM; on CDK6D3, 0.01 µM; at CDK9T1 it was 0.679 µM. The results for the GI50 with MV4-11 and in the assay with MDA-MB-453 were 0.029 ± 0.002 µM and 0.083 ± 0.009 µM, respectively.

In the case of `Cc1nc(N(C)C2CCCC2)sc1-c1ccnc(Nc2ccc(N3CCNCC3)cn2)n1` [Compound 85, N-cyclopentyl-N,4-dimethyl-5-(2-((5-(piperazin-1-yl)pyridin-2-yl)amino)pyrimidin-4-yl)thiazol-2-amine], the Ki on CDK1B was 1.39 µM; on CDK 2A it was 0.174 µM; on CDK4D1 it was 0.002 µM; on CDK6D3 it was 0.01 µM; at CDK9T1, 1.8 µM. The GI50 stood at 0.285 ± 0.041 µM in the assay on MV4-11 and 0.402 ± 0.006 µM in the assay on MDA-MB-453.

On to `Cc1nc(N(C2CCCC2)C2CCCC2)sc1-c1ccnc(Nc2ccc(N3CCNCC3)cn2)n1` [Compound 88, N,N-dicyclopentyl-4-methyl-5-(2-((5-(piperazin-1-yl)pyridin-2-yl)amino)pyrimidin-4-yl)thiazol-2-amine], for which the Ki on CDK1B is more than 15 µM; on CDK 2A, more than 5 µM; at CDK7H it was more than 5 µM; on CDK9T1 it was more than 5 µM. The GI50 with MV4-11 was determined as 0.714 ± 0.179 µM; in the assay on MDA-MB-453, 0.373 ± 0.117 µM.

Turning to `Cc1nc(Nc2ccccc2)sc1-c1ccnc(Nc2ccc(N3CCNCC3)cn2)n1` [Compound 89, 4-Methyl-N-phenyl-5-(2-((5-(piperazin-1-yl)pyridin-2-yl)amino)pyrimidin-4-yl)thiazol-2-amine], the Ki at CDK1B is 2.04 µM; on CDK 2A, more than 5 µM; on CDK4D1 it was 0.005 µM; on CDK6D3 it was 0.066 µM; on CDK9T1, 0.436 µM. Besides, the results for the concentration for 50% growth inhibition (GI50) in the assay on MV4-11 and in the assay with MDA-MB-453 were 0.056 ± 0.011 µM and 0.279 ± 0.044 µM, respectively.

For orientation: remaining activity means what remains of the control signal, in per cent. For `CC(=O)N1CCN(c2ccc(Nc3nccc(-c4sc(=O)[nH]c4C)n3)nc2)CC1` [Compound 95, 5-(2-((5-(4-acetylpiperazin-1-yl)pyridin-2-yl)amino)pyrimidin-4-yl)-4-methylthiazol-2(3H)-one], the remaining activity at 10 µM on CDK1B was determined as 55%; at CDK 2A it was 40%; at CDK6D3 it was 25%; at CDK7H, 68%; on CDK9T1, 17%. In addition, the values for the GI50 with MV4-11 and with MDA-MB-453 were 2.24 ± 0.043 µM and more than 10 µM, respectively.

Consider `Cc1c(-c2ccnc(Nc3ccc(N4CCNCC4)cn3)n2)sc(=O)n1C1CCCC1` [Compound 96, 3-cyclopentyl-4-methyl-5-(2-((5-(piperazin-1-yl)pyridin-2-yl)amino)pyrimidin-4-yl)thiazol-2(3H)-one], for which the remaining activity at 10 µM worked out at 63% at CDK1B; 61% on CDK 2A; 11% at CDK6D3; 22% on CDK7H; 15% on CDK9T1. Also, the figures for the GI50 in the assay on MV4-11 and with MDA-MB-453 were 0.792 ± 0.074 µM and 2.86 ± 0.988 µM, respectively.

In the case of `Cc1[nH]c(=O)sc1-c1ccnc(Nc2ccc(N3CCNCC3)cn2)n1` [Compound 97, 4-methyl-5-(2-((5-(piperazin-1-yl)pyridin-2-yl)amino)pyrimidin-4-yl)thiazol-2(3H)-one], the remaining activity at 10 µM on CDK1B was determined as 58%; at CDK 2A it was 54%; on CDK6D3, 12%; on CDK7H, 24%; at CDK9T1, 3%. In addition, the results for the GI50 in the assay on MV4-11 and with MDA-MB-453 were 1.51 ± 0.802 µM and more than 10 µM, respectively.
